Assay results taken from PubChem BioAssay (NCI).
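Assay format: 96-well plates, 48-hour exposure. The concentration for 50% growth inhibition is given as GI50. Definition used: TGI = concentration required for complete inhibition of growth.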

Assays:
Assay in all cases: NCI-60 cell line screen, 48 h
[1] = test system: 786-0 renal
[2] = test system: A498 renal
[3] = test system: A549 NSCLC
[4] = test system: ACHN renal
[5] = test system: BT-549 breast
[6] = test system: CAKI-1 renal
[7] = test system: CCRF-CEM leukemia
[8] = test system: COLO 205 colon
[9] = test system: DU-145 prostate
[10] = test system: HCC-2998 colon
[11] = test system: HCT-116 colon
[12] = test system: HCT-15 colon
[13] = test system: HL-60(TB) leukemia
[14] = test system: HOP-62 NSCLC
[15] = test system: HOP-92 NSCLC
[16] = test system: HS 578T breast
[17] = test system: HT29 colon
[18] = test system: IGROV1 ovarian
[19] = test system: K-562 leukemia
[20] = test system: KM12 colon
[21] = test system: LOX IMVI melanoma
[22] = test system: M14 melanoma
[23] = test system: MALME-3M melanoma
[24] = test system: MCF7 breast
[25] = test system: MDA-MB-231 breast
[26] = test system: MDA-MB-435
[27] = test system: MOLT-4 leukemia
[28] = test system: NCI-H226 lung
[29] = test system: NCI-H23 lung
[30] = test system: NCI-H460 lung
[31] = test system: NCI-H522 lung
[32] = test system: NCI/ADR-RES ovarian
[33] = test system: OVCAR-3 ovarian
[34] = test system: OVCAR-4 ovarian
[35] = test system: OVCAR-5 ovarian
[36] = test system: OVCAR-8 ovarian
[37] = test system: PC-3 prostate
[38] = test system: RPMI-8226 leukemia
[39] = test system: RXF 393 renal
[40] = test system: SF-268 CNS
[41] = test system: SF-295 CNS
[42] = test system: SK-MEL-2 melanoma
[43] = test system: SK-MEL-28 melanoma
[44] = test system: SK-MEL-5 melanoma
[45] = test system: SN12C renal
[46] = test system: SNB-19 CNS
[47] = test system: SNB-75 CNS
[48] = test system: SR leukemia
[49] = test system: SW-620 colon
[50] = test system: T-47D breast
[51] = test system: TK-10 renal
[52] = test system: U251 CNS
[53] = test system: UACC-257 melanoma
[54] = test system: UACC-62 melanoma
[55] = test system: UO-31 renal

Structure (SMILES): COc1ccc(S(=O)(=O)Nc2cc(/C=C\c3cc(OC)c(OC)c(OC)c3)cc(OC)c2OC)cc1
- GI50 [1]: 57.9 nM
- TGI [1]: 22600 nM
- GI50 [2]: 21.7 nM
- TGI [2]: 92.4 nM
- GI50 [3]: 47.4 nM
- TGI [3]: > 100000 nM
- GI50 [4]: 57 nM
- TGI [4]: 23200 nM
- GI50 [5]: 42.5 nM
- TGI [5]: 79000 nM
- GI50 [6]: 53.1 nM
- TGI [6]: 30900 nM
- GI50 [7]: 32.9 nM
- TGI [7]: > 100000 nM
- GI50 [8]: 21.4 nM
- TGI [8]: 45.9 nM
- GI50 [9]: 41.6 nM
- TGI [9]: > 100000 nM
- GI50 [10]: 39.1 nM
- TGI [10]: > 100000 nM
- GI50 [11]: 35 nM
- TGI [11]: > 100000 nM
- GI50 [12]: 35.8 nM
- TGI [12]: > 100000 nM
- GI50 [13]: 23.4 nM
- TGI [13]: 63.5 nM
- GI50 [14]: 40.8 nM
- TGI [14]: > 100000 nM
- GI50 [15]: 1760 nM
- TGI [15]: 82300 nM
- GI50 [16]: 45.2 nM
- TGI [16]: > 100000 nM
- GI50 [17]: 33.1 nM
- TGI [17]: 122 nM
- GI50 [18]: 57.7 nM
- TGI [18]: > 100000 nM
- GI50 [19]: 27.2 nM
- TGI [19]: 48200 nM
- GI50 [20]: 39.7 nM
- TGI [20]: > 100000 nM
- GI50 [21]: 50 nM
- TGI [21]: > 100000 nM
- GI50 [22]: 30.1 nM
- TGI [22]: > 100000 nM
- GI50 [23]: 12600 nM
- TGI [23]: 97300 nM
- GI50 [24]: 36 nM
- TGI [24]: > 100000 nM
- GI50 [25]: 47.9 nM
- TGI [25]: > 100000 nM
- GI50 [26]: 21.1 nM
- TGI [26]: 48.2 nM
- GI50 [27]: 49.5 nM
- TGI [27]: > 100000 nM
- GI50 [28]: 27300 nM
- TGI [28]: > 100000 nM
- GI50 [29]: 59.3 nM
- TGI [29]: > 100000 nM
- GI50 [30]: 36.7 nM
- TGI [30]: 17000 nM
- GI50 [31]: 19.7 nM
- TGI [31]: 52 nM
- GI50 [32]: 35.3 nM
- TGI [32]: 81500 nM
- GI50 [33]: 34.5 nM
- TGI [33]: 97.7 nM
- GI50 [34]: 84.2 nM
- TGI [34]: > 100000 nM
- GI50 [35]: 49.9 nM
- TGI [35]: > 100000 nM
- GI50 [36]: 45.9 nM
- TGI [36]: > 100000 nM
- GI50 [37]: 38 nM
- TGI [37]: > 100000 nM
- GI50 [38]: 45.9 nM
- TGI [38]: 13200 nM
- GI50 [39]: 40.1 nM
- TGI [39]: 72400 nM
- GI50 [40]: 57.5 nM
- TGI [40]: > 100000 nM
- GI50 [41]: 31.1 nM
- TGI [41]: > 100000 nM
- GI50 [42]: 37.4 nM
- TGI [42]: 63300 nM
- GI50 [43]: 76.5 nM
- TGI [43]: > 100000 nM
- GI50 [44]: 35.9 nM
- TGI [44]: 168 nM
- GI50 [45]: 69.8 nM
- TGI [45]: > 100000 nM
- GI50 [46]: 60.1 nM
- TGI [46]: > 100000 nM
- GI50 [47]: 26.5 nM
- TGI [47]: > 100000 nM
- GI50 [48]: 35.2 nM
- TGI [48]: 2370 nM
- GI50 [49]: 43.9 nM
- TGI [49]: > 100000 nM
- GI50 [50]: 5210 nM
- TGI [50]: > 100000 nM
- GI50 [51]: 65 nM
- TGI [51]: 78000 nM
- GI50 [52]: 35.7 nM
- TGI [52]: > 100000 nM
- GI50 [53]: 4100 nM
- TGI [53]: 98900 nM
- GI50 [54]: 46.1 nM
- TGI [54]: 69400 nM
- GI50 [55]: 63.5 nM
- TGI [55]: 85300 nM
